Laboratory results from patent publication US9321776B2, “Isochromene derivatives as phoshoinositide 3-kinases inhibitors” (CHIESI FARMACEUTICI S.p.A., priority 2013, dated 2016).
Counter-ions that a name gives are not always drawn.

Legend:
Test in all cases: PI3K enzyme inhibitory activity in the cell free assay (ADP-Glo Kinase Assay)
Assay type in all cases: biochemical
PI3Kα = target: T1, PI3Kα (Homo sapiens, UniProt P42336); conditions: human recombinant PI3Kα, ATP 50 μM; read-out: PI3K alpha inhibition
T1 construct: purchased Millipore Ltd (Billerica, Mass.)
T1 sequence (P42336 whole entry): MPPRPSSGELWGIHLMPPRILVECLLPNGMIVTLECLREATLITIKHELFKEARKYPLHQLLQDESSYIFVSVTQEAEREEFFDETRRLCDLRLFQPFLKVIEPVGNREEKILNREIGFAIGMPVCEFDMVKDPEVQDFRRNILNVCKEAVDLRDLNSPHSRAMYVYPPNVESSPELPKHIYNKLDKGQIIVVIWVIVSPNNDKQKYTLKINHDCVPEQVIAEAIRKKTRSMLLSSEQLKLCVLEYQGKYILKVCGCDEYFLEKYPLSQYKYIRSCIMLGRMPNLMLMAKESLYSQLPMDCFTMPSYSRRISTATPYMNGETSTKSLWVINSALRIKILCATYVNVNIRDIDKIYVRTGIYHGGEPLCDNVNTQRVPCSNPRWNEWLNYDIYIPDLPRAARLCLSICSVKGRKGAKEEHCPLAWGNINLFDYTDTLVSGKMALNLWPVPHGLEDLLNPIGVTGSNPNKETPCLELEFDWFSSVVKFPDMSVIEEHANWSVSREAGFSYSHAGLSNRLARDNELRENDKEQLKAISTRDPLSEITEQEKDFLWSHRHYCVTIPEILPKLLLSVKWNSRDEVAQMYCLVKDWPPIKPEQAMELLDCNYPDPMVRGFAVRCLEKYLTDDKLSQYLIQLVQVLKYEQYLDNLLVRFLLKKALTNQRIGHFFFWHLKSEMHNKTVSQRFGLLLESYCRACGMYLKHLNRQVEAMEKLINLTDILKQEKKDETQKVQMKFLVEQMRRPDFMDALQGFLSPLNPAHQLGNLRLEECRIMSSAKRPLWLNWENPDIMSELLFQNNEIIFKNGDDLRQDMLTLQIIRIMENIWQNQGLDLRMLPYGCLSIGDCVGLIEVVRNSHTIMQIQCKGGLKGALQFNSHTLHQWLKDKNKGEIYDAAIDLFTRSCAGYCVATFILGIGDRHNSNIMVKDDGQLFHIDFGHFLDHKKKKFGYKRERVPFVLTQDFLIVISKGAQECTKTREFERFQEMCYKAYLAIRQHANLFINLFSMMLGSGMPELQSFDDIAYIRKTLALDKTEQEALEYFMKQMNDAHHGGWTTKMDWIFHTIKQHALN

PI3Kβ = target: T2, PI3Kβ (Homo sapiens, UniProt P42338); conditions: human recombinant PI3Kβ, ATP 100 μM; read-out: PI3K beta inhibition
T2 construct: purchased Millipore Ltd (Billerica, Mass.)
T2 sequence (P42338 whole entry): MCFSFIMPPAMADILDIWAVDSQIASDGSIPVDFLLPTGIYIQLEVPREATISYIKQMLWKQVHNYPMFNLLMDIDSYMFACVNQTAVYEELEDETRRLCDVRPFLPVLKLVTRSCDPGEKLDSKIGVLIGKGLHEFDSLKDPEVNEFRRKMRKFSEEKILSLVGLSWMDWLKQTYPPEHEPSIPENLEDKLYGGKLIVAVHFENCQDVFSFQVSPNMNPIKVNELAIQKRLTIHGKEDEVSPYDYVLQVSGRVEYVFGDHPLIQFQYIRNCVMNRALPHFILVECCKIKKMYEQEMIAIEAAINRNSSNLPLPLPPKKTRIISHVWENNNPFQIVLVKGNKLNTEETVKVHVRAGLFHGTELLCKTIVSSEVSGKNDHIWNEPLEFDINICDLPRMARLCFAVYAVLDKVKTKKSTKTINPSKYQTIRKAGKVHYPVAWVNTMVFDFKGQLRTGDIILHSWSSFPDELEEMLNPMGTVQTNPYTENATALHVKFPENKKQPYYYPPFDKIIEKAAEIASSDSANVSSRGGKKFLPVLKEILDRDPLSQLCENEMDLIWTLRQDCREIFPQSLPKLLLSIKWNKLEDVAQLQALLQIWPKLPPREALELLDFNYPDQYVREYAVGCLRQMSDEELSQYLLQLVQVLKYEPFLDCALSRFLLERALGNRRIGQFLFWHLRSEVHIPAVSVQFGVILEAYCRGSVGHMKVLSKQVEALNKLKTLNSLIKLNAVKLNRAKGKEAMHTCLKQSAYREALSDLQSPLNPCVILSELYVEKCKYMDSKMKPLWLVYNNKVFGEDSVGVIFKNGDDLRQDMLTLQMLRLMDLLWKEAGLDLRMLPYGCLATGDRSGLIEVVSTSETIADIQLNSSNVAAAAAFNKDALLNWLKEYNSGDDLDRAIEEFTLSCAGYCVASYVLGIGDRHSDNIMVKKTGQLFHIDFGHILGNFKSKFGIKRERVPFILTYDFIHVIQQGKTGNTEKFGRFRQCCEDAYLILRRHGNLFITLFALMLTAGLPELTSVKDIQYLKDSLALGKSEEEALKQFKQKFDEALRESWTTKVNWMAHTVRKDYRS

PI3Kδ = target: T3, PI3Kδ (Homo sapiens, UniProt O00329); conditions: human recombinant PI3Kδ, ATP 80 μM; read-out: PI3K delta inhibition
T3 construct: purchased Millipore Ltd (Billerica, Mass.)
T3 sequence (O00329 1-1044): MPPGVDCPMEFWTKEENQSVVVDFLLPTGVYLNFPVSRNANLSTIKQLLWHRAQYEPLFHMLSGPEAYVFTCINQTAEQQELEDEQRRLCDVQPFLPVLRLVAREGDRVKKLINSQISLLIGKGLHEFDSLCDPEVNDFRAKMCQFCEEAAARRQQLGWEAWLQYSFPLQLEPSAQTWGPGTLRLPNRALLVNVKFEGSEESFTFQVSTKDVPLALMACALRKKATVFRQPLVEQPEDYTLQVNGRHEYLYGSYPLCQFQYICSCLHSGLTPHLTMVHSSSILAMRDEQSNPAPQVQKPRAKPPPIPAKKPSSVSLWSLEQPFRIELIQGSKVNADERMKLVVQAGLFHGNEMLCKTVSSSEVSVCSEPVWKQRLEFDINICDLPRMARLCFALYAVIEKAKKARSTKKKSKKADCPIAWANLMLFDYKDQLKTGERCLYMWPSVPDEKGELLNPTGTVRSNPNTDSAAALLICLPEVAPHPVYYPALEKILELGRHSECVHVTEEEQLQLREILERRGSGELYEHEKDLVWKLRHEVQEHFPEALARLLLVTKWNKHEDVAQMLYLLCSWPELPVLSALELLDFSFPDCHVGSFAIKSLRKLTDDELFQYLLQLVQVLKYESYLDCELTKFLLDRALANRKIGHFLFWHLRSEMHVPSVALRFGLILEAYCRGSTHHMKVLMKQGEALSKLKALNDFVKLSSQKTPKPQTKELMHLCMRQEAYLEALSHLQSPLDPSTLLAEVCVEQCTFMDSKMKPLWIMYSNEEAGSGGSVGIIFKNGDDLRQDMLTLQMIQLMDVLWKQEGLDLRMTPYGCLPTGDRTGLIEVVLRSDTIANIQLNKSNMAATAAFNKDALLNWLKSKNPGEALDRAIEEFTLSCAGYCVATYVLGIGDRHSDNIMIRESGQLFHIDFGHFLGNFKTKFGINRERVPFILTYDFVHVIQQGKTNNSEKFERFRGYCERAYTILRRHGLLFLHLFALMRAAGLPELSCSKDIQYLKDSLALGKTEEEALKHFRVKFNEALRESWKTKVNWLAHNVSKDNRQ

PI3Kγ = target: T4, PI3Kγ (Homo sapiens, UniProt P48736); conditions: human recombinant PI3Kγ, ATP 30 μM; read-out: PI3K gamma inhibition
T4 construct: purchased Millipore Ltd (Billerica, Mass.)
T4 sequence (P48736 whole entry): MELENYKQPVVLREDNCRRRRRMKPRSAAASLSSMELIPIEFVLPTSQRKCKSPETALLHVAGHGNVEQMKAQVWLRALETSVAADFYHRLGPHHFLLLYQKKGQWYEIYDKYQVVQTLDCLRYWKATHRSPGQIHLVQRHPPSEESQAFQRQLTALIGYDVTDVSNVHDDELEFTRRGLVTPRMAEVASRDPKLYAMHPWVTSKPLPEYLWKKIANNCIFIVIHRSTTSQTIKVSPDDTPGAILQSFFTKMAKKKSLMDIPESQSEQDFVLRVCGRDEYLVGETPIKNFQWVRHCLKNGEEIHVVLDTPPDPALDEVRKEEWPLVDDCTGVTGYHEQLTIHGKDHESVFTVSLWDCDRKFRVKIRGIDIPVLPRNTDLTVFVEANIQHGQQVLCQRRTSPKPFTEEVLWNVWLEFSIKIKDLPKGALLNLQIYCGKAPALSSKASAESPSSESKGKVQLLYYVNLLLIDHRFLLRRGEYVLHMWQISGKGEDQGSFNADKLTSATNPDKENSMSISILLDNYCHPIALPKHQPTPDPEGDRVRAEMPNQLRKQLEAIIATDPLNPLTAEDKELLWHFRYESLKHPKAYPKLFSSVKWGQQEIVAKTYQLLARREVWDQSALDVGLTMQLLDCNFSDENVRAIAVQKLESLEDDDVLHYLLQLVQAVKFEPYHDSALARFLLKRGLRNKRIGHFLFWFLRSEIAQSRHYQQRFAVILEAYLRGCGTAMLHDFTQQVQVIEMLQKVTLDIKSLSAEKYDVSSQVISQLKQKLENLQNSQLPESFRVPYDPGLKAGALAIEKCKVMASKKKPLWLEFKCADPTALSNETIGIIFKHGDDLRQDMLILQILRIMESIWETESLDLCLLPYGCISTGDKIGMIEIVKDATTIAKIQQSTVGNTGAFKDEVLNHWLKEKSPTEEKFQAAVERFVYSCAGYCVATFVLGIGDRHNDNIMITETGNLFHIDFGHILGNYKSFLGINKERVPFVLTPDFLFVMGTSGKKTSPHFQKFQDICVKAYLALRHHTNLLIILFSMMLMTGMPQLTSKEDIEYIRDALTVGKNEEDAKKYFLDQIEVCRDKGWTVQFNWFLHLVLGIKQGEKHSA

| IC50 (PI3Kα) | IC50 (PI3Kβ) | IC50 (PI3Kδ) | IC50 (PI3Kγ) | Structure (SMILES) |
| --- | --- | --- | --- | --- |
| 10 to 1000 nM | 10 to 1000 nM | < 10 nM | 10 to 1000 nM | CC(=O)N1CC=C(c2c(C(C)n3nc(-c4cncc(O)c4)c4c(N)ncnc43)oc(=O)c3ccccc23)CC1 (stereo not drawn) [Example 71, 4-(1-acetyl-1,2,3,6-tetrahydropyridin-4-yl)-3-(1-(4-amino-3-(5-hydroxypyridin-3-yl)-1H-pyrazolo[3,4-d]pyrimidin-1-yl)ethyl)-1H-isochromen-1-one] |
| > 1000 nM | 10 to 1000 nM | 10 to 1000 nM | 10 to 1000 nM | Nc1ncnc2c1c(-c1cc(O)cc(F)c1)nn2CC1=C(c2ccccc2)c2ccccc2CO1 [Example 128, 3-(4-amino-1-((4-phenyl-1H-isochromen-3-yl)methyl)-1H-pyrazolo[3,4-d]pyrimidin-3-yl)-5-fluorophenol] |
| 10 to 1000 nM | 10 to 1000 nM | < 10 nM | > 1000 nM | CC(c1oc(=O)c2ccccc2c1C1=CCC(N)CC1)n1nc(-c2cc(O)cc(F)c2)c2c(N)ncnc21 (stereo not drawn) [Example 103, 3-(1-(4-amino-3-(3-fluoro-5-hydroxyphenyl)-1H-pyrazolo[3,4-d]pyrimidin-1-yl)ethyl)-4-(4-aminocyclohex-1-en-1-yl)-1H-isochromen-1-one hydrochloride] |
| 10 to 1000 nM | 10 to 1000 nM | < 10 nM | 10 to 1000 nM | CC(c1oc(=O)c2ccccc2c1-c1ccc(CN2CCOCC2)s1)n1nc(-c2cc(O)cc(F)c2)c2c(N)ncnc21 (single isomer, unassigned) [Example 49a, 3-(1-(4-amino-3-(3-fluoro-5-hydroxyphenyl)-1H-pyrazolo[3,4-d]pyrimidin-1-yl)ethyl)-4-(5-(morpholinomethyl)thiophen-2-yl)-1H-isochromen-1-one hydrochloride] |
| > 1000 nM | > 1000 nM | < 10 nM | > 1000 nM | CC(c1oc(=O)c2ccccc2c1-c1ccc(CN2CCN(C)CC2)cc1)n1nc(-c2cc(O)cc(F)c2)c2c(N)ncnc21 (stereo not drawn) [Example 139, 3-(1-(4-amino-3-(3-fluoro-5-hydroxyphenyl)-1H-pyrazolo[3,4-d]pyrimidin-1-yl)ethyl)-4-(4-((4-methylpiperazin-1-yl)methyl)phenyl)-1H-isochromen-1-one, dihydrochloride] |
| > 1000 nM | 10 to 1000 nM | < 10 nM | 10 to 1000 nM | CC(c1oc(=O)c2ccccc2c1-c1cccc(CCCN(C)C)c1)n1nc(-c2cc(O)cc(F)c2)c2c(N)ncnc21 (stereo not drawn) [Example 137, 3-(1-(4-amino-3-(3-fluoro-5-hydroxyphenyl)-1H-pyrazolo[3,4-d]pyrimidin-1-yl)ethyl)-4-(3-(3-(dimethylamino)propyl)phenyl)-1H-isochromen-1-one, Formic Acid] |
| 10 to 1000 nM | 10 to 1000 nM | < 10 nM | 10 to 1000 nM | CC(c1oc(=O)c2ccccc2c1-c1ccc(CN2CCN(CCO)CC2)s1)n1nc(-c2cc(O)cc(F)c2)c2c(N)ncnc21 (single isomer, unassigned) [Example 76b, 3-(1-(4-amino-3-(3-fluoro-5-hydroxyphenyl)-1H-pyrazolo[3,4-d]pyrimidin-1-yl)ethyl)-4-(5-((4-(2-hydroxyethyl)piperazin-1-yl)methyl)thiophen-2-yl)-1H-isochromen-1-one hydrochloride] |
| > 1000 nM | 10 to 1000 nM | 10 to 1000 nM | > 1000 nM | CC(c1oc(=O)c2ccccc2c1C1=CCN(C)CC1)n1nc(-c2cc(O)cc(C(F)(F)F)c2)c2c(N)ncnc21 (stereo not drawn) [Example 155, 3-(1-(4-amino-3-(3-hydroxy-5-(trifluoromethyl)phenyl)-1H-pyrazolo[3,4-d]pyrimidin-1-yl)ethyl)-4-(1-methyl-1,2,3,6-tetrahydropyridin-4-yl)-1H-isochromen-1-one formate] |
| > 1000 nM | > 1000 nM | < 10 nM | > 1000 nM | CC(c1oc(=O)c2ccccc2c1-c1cccc(CN2CCN(C)CC2)c1)n1nc(-c2cc(O)cc(F)c2)c2c(N)ncnc21 (stereo not drawn) [Example 142, 3-(1-(4-amino-3-(3-fluoro-5-hydroxyphenyl)-1H-pyrazolo[3,4-d]pyrimidin-1-yl)ethyl)-4-(3-((4-methylpiperazin-1-yl)methyl)phenyl)-1H-isochromen-1-one] |
| > 1000 nM | 10 to 1000 nM | < 10 nM | > 1000 nM | CC(c1oc(=O)c2ccccc2c1-c1ccc(CN2CCCC2)cc1)n1nc(-c2cc(O)cc(F)c2)c2c(N)ncnc21 (stereo not drawn) [Example 140, 3-(1-(4-amino-3-(3-fluoro-5-hydroxyphenyl)-1H-pyrazolo[3,4-d]pyrimidin-1-yl)ethyl)-4-(4-(pyrrolidin-1-ylmethyl)phenyl)-1H-isochromen-1-one, hydrochloride] |
| > 1000 nM | > 1000 nM | 10 to 1000 nM | > 1000 nM | CC(Nc1ncnc2[nH]cnc12)c1oc(=O)c2ccccc2c1-c1cnc(N)nc1 (stereo not drawn) [Example 124, 3-(1-(9H-purin-6-ylamino)ethyl)-4-(2-aminopyrimidin-5-yl)-1H-isochromen-1-one] |
| > 1000 nM | > 1000 nM | 10 to 1000 nM | 10 to 1000 nM | CC(Nc1ncnc2[nH]cnc12)c1oc(=O)c2ccccc2c1-c1ccc(CN2CCOCC2)cc1 (stereo not drawn) [Example 47, 3-(1-(9H-purin-6-ylamino)ethyl)-4-(4-(morpholinomethyl)phenyl)-1H-isochromen-1-one hydrochloride] |
| > 1000 nM | 10 to 1000 nM | 10 to 1000 nM | 10 to 1000 nM | CC(c1oc(=O)c2ccccc2c1-c1cnc(N)s1)n1nc(-c2cc(O)cc(F)c2)c2c(N)ncnc21 (stereo not drawn) [Example 121, 3-(1-(4-amino-3-(3-fluoro-5-hydroxyphenyl)-1H-pyrazolo[3,4-d]pyrimidin-1-yl)ethyl)-4-(2-aminothiazol-5-yl)-1H-isochromen-1-one hydrochloride] |
| > 1000 nM | 10 to 1000 nM | < 10 nM | 10 to 1000 nM | CC(c1oc(=O)c2ccc(Cl)cc2c1-c1ccccc1)n1nc(-c2cc(O)cc(F)c2)c2c(N)ncnc21 (stereo not drawn) [Example 164, 3-(1-(4-amino-3-(3-fluoro-5-hydroxyphenyl)-1H-pyrazolo[3,4-d]pyrimidin-1-yl)ethyl)-6-chloro-4-phenyl-1H-isochromen-1-one] |
| 10 to 1000 nM | 10 to 1000 nM | 10 to 1000 nM | > 1000 nM | CC(c1oc(=O)c2ccccc2c1C1=CC2CCC(C1)N2C)n1nc(-c2cc(O)cc(F)c2)c2c(N)ncnc21 (stereo not drawn) [Example 92, 3-(1-(4-amino-3-(3-fluoro-5-hydroxyphenyl)-1H-pyrazolo[3,4-d]pyrimidin-1-yl)ethyl)-4-(8-methyl-8-azabicyclo[3.2.1]oct-2-en-3-yl)-1H-isochromen-1-one hydrochloride] |
